Results published in patent US11708359B2, “Monoacylglycerol lipase modulators” (Janssen Pharmaceutica NV, priority 2020, dated 2023).
pIC50: −log10 of the molar value.

Target: human MGL from HeLa cells (Homo sapiens (Human), UniProt Q99685)
Assay: MGL in vitro activity assay ([glycerol-1,3-3H]-oleoyl glycerol cleavage, activated carbon filter)
Assay type: biochemical
Settings: 300 nM [Glycerol-1,3-3H]-oleoyl glycerol, endogenously expressed MGL from HeLa cells, one hour incubation; read-out: MGL IC50
Experimental: The assay consists of combining endogenously expressed MGL from HeLa cells with test compounds, adding[glycerol-1,3-^3H]-oleoyl glycerol, incubating for one hour, and then measuring the amount of cleaved[1,3-^3H]-glycerol that passes through an activated carbon filter. The amount of cleaved, tritiated glycerol passing through the carbon filter is proportional to the activity of the MGL enzyme in a particular well/test condition.
Standard conditions for this assay combine 300 nM [Glycerol-1,3-^3H]-oleoyl glycerol with human MGL from HeLa cells and test compounds for one hour, after which the reaction is filtered through activated carbon and tritium is measured in the flow through. […] MGL is the predominant hydrolase in HeLa cells/cell homogenates.

human MGL from HeLa cells, sequence (Q99685 whole entry): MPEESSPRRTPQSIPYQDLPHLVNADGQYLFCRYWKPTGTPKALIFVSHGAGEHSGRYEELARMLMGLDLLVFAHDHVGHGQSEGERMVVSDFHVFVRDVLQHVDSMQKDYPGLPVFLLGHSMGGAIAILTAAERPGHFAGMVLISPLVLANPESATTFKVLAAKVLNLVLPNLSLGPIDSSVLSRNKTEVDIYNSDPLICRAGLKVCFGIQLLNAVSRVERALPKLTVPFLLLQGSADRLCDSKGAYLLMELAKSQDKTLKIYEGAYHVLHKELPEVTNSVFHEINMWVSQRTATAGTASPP

Row | Compound | pIC50
1 | O=C1N[C@]2(CO1)C[C@H](C(=O)N1CC3CC3(c3ccccc3)C1)C2 (mixture of isomers) [Example 4, (rac)-(2s,4s)-2-(1-Phenyl-3-azabicyclo[3.1.0]hexane-3-carbonyl)-7-oxa-5-azaspiro[3.4]octan-6-one] | 7.31
2 | CC(C)c1ccc(C23CC2CN(C(=O)[C@H]2C[C@]4(COC(=O)N4)C2)C3)cc1 (mixture of isomers) [Example 9, (rac)-(2s,4s)-2-(1-(4-Isopropylphenyl)-3-azabicyclo[3.1.0]hexane-3-carbonyl)-7-oxa-5-azaspiro[3.4]octan-6-one] | 8.66
3 | CC(C)c1ccc(C23CC2CN(C(=O)[C@H]2C[C@]4(CCC(=O)N4)C2)C3)cc1 (mixture of isomers) [Example 12, (rac)-(2r,4s)-2-(1-(4-Isopropylphenyl)-3-azabicyclo[3.1.0]hexane-3-carbonyl)-5-azaspiro[3.4]octan-6-one] | 7.85
4 | CC(C)(C)c1ccc(C23CC2CN(C(=O)[C@H]2C[C@]4(CCC(=O)N4)C2)C3)cc1 (mixture of isomers) [Example 13, (rac)-(2r,4s)-2-(1-(4-(tert-Butyl)phenyl)-3-azabicyclo[3.1.0]hexane-3-carbonyl)-5-azaspiro[3.4]octan-6-one] | 8.04
5 | O=C1N[C@]2(CO1)C[C@H](C(=O)N1CC3CC3(c3cccc(C4CC4)c3)C1)C2 (mixture of isomers) [Example 16, (rac)-(2s,4s)-2-(1-(3-Cyclopropylphenyl)-3-azabicyclo[3.1.0]hexane-3-carbonyl)-7-oxa-5-azaspiro[3.4]octan-6-one] | 8.25
6 | O=C1N[C@]2(CO1)C[C@H](C(=O)N1CC3CC3(c3ccc(C4CC4)cc3)C1)C2 (mixture of isomers) [Example 18, (rac)-(2s,4s)-2-(1-(4-Cyclopropylphenyl)-3-azabicyclo[3.1.0]hexane-3-carbonyl)-7-oxa-5-azaspiro[3.4]octan-6-one] | 8.36
7 | Cc1ccc(C23CC2CN(C(=O)[C@H]2C[C@]4(COC(=O)N4)C2)C3)cc1C(F)(F)F (mixture of isomers) [Example 25, (rac)-(2s,4s)-2-(1-(4-Methyl-3-(trifluoromethyl)phenyl)-3-azabicyclo[3.1.0]hexane-3-carbonyl)-7-oxa-5-azaspiro[3.4]octan-6-one] | 8.44
8 | CC1(c2ccc(C34CC3CN(C(=O)[C@H]3C[C@]5(CCC(=O)N5)C3)C4)cc2)CC1 (mixture of isomers) [Example 27, (rac)-(2r,4s)-2-(1-(4-(1-Methylcyclopropyl)phenyl)-3-azabicyclo[3.1.0]hexane-3-carbonyl)-5-azaspiro[3.4]octan-6-one] | 8.02
9 | O=C1N[C@]2(CO1)C[C@H](C(=O)N1CC3CC3(c3cccc(Oc4ccccc4)c3)C1)C2 (mixture of isomers) [Example 29, (rac)-(2s,4s)-2-(1-(3-Phenoxyphenyl)-3-azabicyclo[3.1.0]hexane-3-carbonyl)-7-oxa-5-azaspiro[3.4]octan-6-one] | 8.82
10 | Cc1ccc(C23CC2CN(C(=O)[C@H]2C[C@]4(COC(=O)N4)C2)C3)cc1Cl (mixture of isomers) [Example 30, (rac)-(2s,4s)-2-(1-(3-Chloro-4-methylphenyl)-3-azabicyclo[3.1.0]hexane-3-carbonyl)-7-oxa-5-azaspiro[3.4]octan-6-one] | 8.54

Further lines, results first:

Row | pIC50 | Compound
11 | 8.16 | CC(C)c1cccc(C23CC2CN(C(=O)[C@H]2C[C@]4(COC(=O)N4)C2)C3)c1 (mixture of isomers) [Example 6, (rac)-(2s,4s)-2-(1-(3-Isopropylphenyl)-3-azabicyclo[3.1.0]hexane-3-carbonyl)-7-oxa-5-azaspiro[3.4]octan-6-one]
12 | 7.96 | O=C1N[C@]2(CO1)C[C@H](C(=O)N1CC3CC3(c3cccc(OC(F)(F)F)c3)C1)C2 (mixture of isomers) [Example 19, (rac)-(2s,4s)-2-(1-(3-(Trifluoromethoxy)phenyl)-3-azabicyclo[3.1.0]hexane-3-carbonyl)-7-oxa-5-azaspiro[3.4]octan-6-one]
13 | 8.19 | Cc1ccccc1C12CC1CN(C(=O)[C@H]1C[C@]3(COC(=O)N3)C1)C2 (mixture of isomers) [Example 20, (rac)-(2s,4s)-2-(1-(o-Tolyl)-3-azabicyclo[3.1.0]hexane-3-carbonyl)-7-oxa-5-azaspiro[3.4]octan-6-one]
14 | 7.85 | Cc1cccc(C23CC2CN(C(=O)[C@H]2C[C@]4(COC(=O)N4)C2)C3)c1 (mixture of isomers) [Example 21, (rac)-(2s,4s)-2-(1-(m-Tolyl)-3-azabicyclo[3.1.0]hexane-3-carbonyl)-7-oxa-5-azaspiro[3.4]octan-6-one]
15 | 7.80 | O=C1N[C@]2(CO1)C[C@H](C(=O)N1CC3CC3(c3ccc(OC(F)(F)F)cc3)C1)C2 (mixture of isomers) [Example 22, (rac)-(2s,4s)-2-(1-(4-(Trifluoromethoxy)phenyl)-3-azabicyclo[3.1.0]hexane-3-carbonyl)-7-oxa-5-azaspiro[3.4]octan-6-one]
16 | 7.85 | O=C1N[C@]2(CO1)C[C@H](C(=O)N1CC3CC3(c3cccc(C(F)(F)F)c3)C1)C2 (mixture of isomers) [Example 23, (rac)-(2s,4s)-2-(1-(3-(Trifluoromethyl)phenyl)-3-azabicyclo[3.1.0]hexane-3-carbonyl)-7-oxa-5-azaspiro[3.4]octan-6-one]
17 | 7.82 | O=C1N[C@]2(CO1)C[C@H](C(=O)N1CC3CC3(c3ccc(C(F)(F)F)cc3)C1)C2 (mixture of isomers) [Example 24, (rac)-(2s,4s)-2-(1-(4-(Trifluoromethyl)phenyl)-3-azabicyclo[3.1.0]hexane-3-carbonyl)-7-oxa-5-azaspiro[3.4]octan-6-one]
18 | 8.77 | O=C1N[C@]2(CO1)C[C@H](C(=O)N1CC3CC3(c3ccc(Oc4ccccc4)cc3)C1)C2 (mixture of isomers) [Example 28, (rac)-(2s,4s)-2-(1-(4-Phenoxyphenyl)-3-azabicyclo[3.1.0]hexane-3-carbonyl)-7-oxa-5-azaspiro[3.4]octan-6-one]
19 | 8.96 | CC1(c2cccc(C34CC3CN(C(=O)[C@H]3C[C@]5(COC(=O)N5)C3)C4)c2)CC1 (mixture of isomers) [Example 31, (rac)-(2s,4s)-2-(1-(3-(1-Methylcyclopropyl)phenyl)-3-azabicyclo[3.1.0]hexane-3-carbonyl)-7-oxa-5-azaspiro[3.4]octan-6-one]
20 | 8.60 | Cc1cc(C(F)(F)F)ccc1C12CC1CN(C(=O)[C@H]1C[C@]3(COC(=O)N3)C1)C2 (mixture of isomers) [Example 33, (rac)-(2s,4s)-2-(1-(2-Methyl-4-(trifluoromethyl)phenyl)-3-azabicyclo[3.1.0]hexane-3-carbonyl)-7-oxa-5-azaspiro[3.4]octan-6-one]
21 | 8.51 | Cc1cc(OC(F)(F)F)ccc1C12CC1CN(C(=O)[C@H]1C[C@]3(COC(=O)N3)C1)C2 (mixture of isomers) [Example 34, (rac)-(2s,4s)-2-(1-(2-Methyl-4-(trifluoromethoxy)phenyl)-3-azabicyclo[3.1.0]hexane-3-carbonyl)-7-oxa-5-azaspiro[3.4]octan-6-one]
22 | 8.19 | Cc1cc(C23CC2CN(C(=O)[C@H]2C[C@]4(COC(=O)N4)C2)C3)ccc1OC(F)(F)F (mixture of isomers) [Example 35, (rac)-(2s,4s)-2-(1-(3-Methyl-4-(trifluoromethoxy)phenyl)-3-azabicyclo[3.1.0]hexane-3-carbonyl)-7-oxa-5-azaspiro[3.4]octan-6-one]
23 | 8.49 | Cc1cc(C23CC2CN(C(=O)[C@H]2C[C@]4(COC(=O)N4)C2)C3)ccc1C(F)(F)F (mixture of isomers) [Example 36, (rac)-(2s,4s)-2-(1-(3-Methyl-4-(trifluoromethyl)phenyl)-3-azabicyclo[3.1.0]hexane-3-carbonyl)-7-oxa-5-azaspiro[3.4]octan-6-one]
